{"source": "paper PMC4884932", "about": "“Selective brain penetrable Nurr1 transactivator for treating Parkinson's disease” (Oncotarget, 2016)", "key": {"[1]": {"system": "tyrosine hydroxylase (TH)-positive DA neurons", "assay": "DA neuron survival in primary ventral midbrain (VMB) culture", "format": "cell-based, mouse", "settings": "co-treatment with IRX4204", "description": "(§1) Ventral midbrain (VMB) from E13.5-14.5 C57BL/6 mouse embryos were dissected, triturated and plated on poly-D-lysine coated 12 well plates or glass coverslips with the serum-free chemically-defined Neurobasal medium, supplemented with 2% B27, 0.5mM L-glutamine, 50I.U./ml penicillin and 50μg/ml streptomycin (Gibco-BRL). […] For each time point, cells were washed once with phosphate buffered saline and fixed with 4% paraformaldehyde for TH immunofluorescent staining. For cell counting, 10 frames were randomly captured from each well using a Leica fluorescent microscope and a minimum of four replicates for each dose and each time point were analyzed for each experiment."}, "[2]": {"system": "primary VMB neurons", "assay": "Nurr1 downstream gene expression in VMB neurons (real time PCR)", "format": "cell-based, mouse", "settings": "HX531 100nM with 1nM IRX4204", "description": "as §1\nTotal RNA from VMB neurons or rat substantia nigra were isolated using the RNeasy Mini Kit from Qiagen (Valencia, CA) and 1μg of total RNA was reverse transcribed using SuperScript III first-strand synthesis supermix for qRT-PCR from Invitrogen (Carlsbad, CA) according to the manufacturer's instruction. Quantitative RT-PCR was performed using Maxima SYBR Green master mix (Fermentas) in ABI Prism 7900HT in four replicates with primers amplifying the target genes. Expression level of actin was used as an internal control. Data were normalized using the 2^−ΔΔCt method. Levels of target gene mRNAs were expressed relative to those in vehicle control groups and plotted in GraphPad Prism."}}, "data": [{"smiles": "CN1c2ccc([N+](=O)[O-])cc2N=C(c2ccc(C(=O)O)cc2)c2cc3c(cc21)C(C)(C)CCC3(C)C", "note": "[HX531, reference compound]", "values": [{"measurement": "effect on IRX4204-promoted survival of TH-positive DA neurons", "setting": "[1]", "result": "completely blocked"}, {"measurement": "effect on IRX4204-mediated increased expression of DAT", "setting": "[2]", "result": "totally abolished"}, {"measurement": "effect on IRX4204-mediated increased expression of DDC", "setting": "[2]", "result": "totally abolished"}]}]}
